Experiments:
[1] = test system: non-small cell lung carcinoma (NSCLC), cT4, N0, M1; test: Clinical course under treatment, patient of Example 1; type: in vivo, human; conditions: Example 1 patient
[2] = test system: primary bronchial adenocarcinoma with bilateral pulmonary metastases and asymptomatic cerebral metastases; test: Clinical course under treatment, patient of Example 3; type: in vivo, human; conditions: Example 3 patient
From the text: A patient was diagnosized in May 2007 for a primary bronchial adenocarcinoma with bilateral pulmonary metastases and asymptomatic cerebral metastases. A surgical treatment has been carried out in November 2008 and two therapeutic lines have been used, namely thirteen cycles of cisplatin-gemcitabin for the first line and Alimta for the second one.
However, based on this score table, avastin associated with a score of 384 has been selected.

[3] = test system: bronchial adenocarcinoma T4 with bones and pleural metastases; conditions: Example 2 patient

CCOc1cc2ncc(C#N)c(Nc3ccc(OCc4ccccn4)c(Cl)c3)c2cc1NC(=O)/C=C/CN(C)C [HKI 272]
Clinical response / disease status under treatment [1]: efficient
Time on treatment until disease progression [1]: 37 months

Nc1nc2[nH]cc(CCc3ccc(C(=O)N[C@@H](CCC(=O)O)C(=O)O)cc3)c2c(=O)[nH]1 [PEMETREXED]
Clinical response / disease status under treatment [2]: disease progression

C#Cc1cccc(Nc2ncnc3cc(OCCOC)c(OCCOC)cc23)c1 [Tarceva]
Clinical response / disease status under treatment [3]: inefficient and led to a rapid progression

CCC1=C[C@@H]2CN(C1)Cc1c([nH]c3ccccc13)[C@@](C(=O)OC)(c1cc3c(cc1OC)N(C)[C@H]1[C@@](O)(C(=O)OC)[C@H](OC(C)=O)[C@]4(CC)C=CCN5CC[C@]31[C@@H]54)C2 [VINORELBINE]
Clinical response / disease status under treatment [3]: Three months later, the disease was stable, then progressed

BEVACIZUMAB: drug whose major target gene is VEGFA
Clinical response / disease status under treatment [2]: major response

Reference: patent publication US20120136583A1, “METHOD FOR PREDICTING EFFICACY OF DRUGS IN A PATIENT” (WORLDWIDE INNOVATIVE NETWORK, priority 2009, published 2012)
